Assay results published in ChEMBL document CHEMBL3632570, “Structure-Guided Design of Novel l-Cysteine Derivatives as Potent KSP Inhibitors” (ACS Med Chem Lett, 2015).
Active and inactive are the calls of the source. The calls are words filed in the database; no cut-off is given here.

Tests used:
HCT-116 [1] = assay: Antitumor activity against human HCT116 cells xenografted in athymic nude BALB/cAJcL mouse assessed as inhibition of tumor growth at 75 mg/kg, iv administered on days 1,3,5,8,10 and 12 measured on day 15; assay type: functional
HCT-116 [2] = assay: Antitumor activity against human HCT116 cells xenografted in iv dosed athymic nude BALB/cAJcL mouse assessed as inhibition of tumor growth drug administered on days 1,3,5,8,10 and 12 measured on day 15; assay type: functional, organism-based
[3] = target: T1, Kinesin-like protein KIF23 (Homo sapiens) (UniProt Q02241); assay: Inhibition of microtubule-stimulated MKLP1 motor domain (1 to 446) (unknown origin) ATPase activity at 6.3 uM
T1 sequence (whole entry): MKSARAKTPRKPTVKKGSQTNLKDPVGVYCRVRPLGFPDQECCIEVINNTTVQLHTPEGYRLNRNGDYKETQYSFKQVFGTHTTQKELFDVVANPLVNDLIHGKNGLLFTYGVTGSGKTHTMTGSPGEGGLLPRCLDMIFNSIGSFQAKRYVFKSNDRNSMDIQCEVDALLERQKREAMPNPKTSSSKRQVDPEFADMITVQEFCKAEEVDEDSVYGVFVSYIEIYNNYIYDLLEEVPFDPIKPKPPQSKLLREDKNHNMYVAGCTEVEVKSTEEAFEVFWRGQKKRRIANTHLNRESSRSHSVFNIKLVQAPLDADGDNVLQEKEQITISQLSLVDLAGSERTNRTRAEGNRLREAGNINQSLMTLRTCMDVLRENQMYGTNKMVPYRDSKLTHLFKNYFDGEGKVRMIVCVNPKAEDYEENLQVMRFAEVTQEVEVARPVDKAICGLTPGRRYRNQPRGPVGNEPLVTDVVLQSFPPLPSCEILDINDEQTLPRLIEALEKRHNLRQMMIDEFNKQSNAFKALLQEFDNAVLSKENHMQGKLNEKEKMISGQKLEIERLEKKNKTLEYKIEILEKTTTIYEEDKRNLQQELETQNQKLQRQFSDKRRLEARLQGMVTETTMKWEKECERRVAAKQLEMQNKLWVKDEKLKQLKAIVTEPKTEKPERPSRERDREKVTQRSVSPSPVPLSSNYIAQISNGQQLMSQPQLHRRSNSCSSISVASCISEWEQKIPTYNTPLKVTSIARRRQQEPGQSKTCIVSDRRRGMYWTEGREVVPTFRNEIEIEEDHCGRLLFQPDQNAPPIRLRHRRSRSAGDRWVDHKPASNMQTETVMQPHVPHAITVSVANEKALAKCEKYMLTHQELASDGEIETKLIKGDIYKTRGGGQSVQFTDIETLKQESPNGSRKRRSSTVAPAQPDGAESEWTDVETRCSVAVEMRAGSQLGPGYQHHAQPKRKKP

HeLa [4] = assay: Cell cycle arrest at mitotic phase in human HeLa cells assessed as mitotic index after 6 hrs; assay type: functional
HeLa [5] = assay: Cell cycle arrest at mitotic phase in human HeLa cells assessed as formation of monopolar spindles at 40 nM after 6 hrs by DAPI staining-based microscopic analysis; assay type: functional
Mus musculus = assay: Toxicity in athymic nude BALB/cAJcL mouse xenografted with HCT116 cells assessed as mortality at 75 mg/kg, iv administered on days 1,3,5,8,10 and 12; assay type: organism-based, HCT-116; settings: in vivo
[6] = target: T2, Kinesin-like protein KIF11 (Homo sapiens) (UniProt P52732)
T2 sequence (whole entry): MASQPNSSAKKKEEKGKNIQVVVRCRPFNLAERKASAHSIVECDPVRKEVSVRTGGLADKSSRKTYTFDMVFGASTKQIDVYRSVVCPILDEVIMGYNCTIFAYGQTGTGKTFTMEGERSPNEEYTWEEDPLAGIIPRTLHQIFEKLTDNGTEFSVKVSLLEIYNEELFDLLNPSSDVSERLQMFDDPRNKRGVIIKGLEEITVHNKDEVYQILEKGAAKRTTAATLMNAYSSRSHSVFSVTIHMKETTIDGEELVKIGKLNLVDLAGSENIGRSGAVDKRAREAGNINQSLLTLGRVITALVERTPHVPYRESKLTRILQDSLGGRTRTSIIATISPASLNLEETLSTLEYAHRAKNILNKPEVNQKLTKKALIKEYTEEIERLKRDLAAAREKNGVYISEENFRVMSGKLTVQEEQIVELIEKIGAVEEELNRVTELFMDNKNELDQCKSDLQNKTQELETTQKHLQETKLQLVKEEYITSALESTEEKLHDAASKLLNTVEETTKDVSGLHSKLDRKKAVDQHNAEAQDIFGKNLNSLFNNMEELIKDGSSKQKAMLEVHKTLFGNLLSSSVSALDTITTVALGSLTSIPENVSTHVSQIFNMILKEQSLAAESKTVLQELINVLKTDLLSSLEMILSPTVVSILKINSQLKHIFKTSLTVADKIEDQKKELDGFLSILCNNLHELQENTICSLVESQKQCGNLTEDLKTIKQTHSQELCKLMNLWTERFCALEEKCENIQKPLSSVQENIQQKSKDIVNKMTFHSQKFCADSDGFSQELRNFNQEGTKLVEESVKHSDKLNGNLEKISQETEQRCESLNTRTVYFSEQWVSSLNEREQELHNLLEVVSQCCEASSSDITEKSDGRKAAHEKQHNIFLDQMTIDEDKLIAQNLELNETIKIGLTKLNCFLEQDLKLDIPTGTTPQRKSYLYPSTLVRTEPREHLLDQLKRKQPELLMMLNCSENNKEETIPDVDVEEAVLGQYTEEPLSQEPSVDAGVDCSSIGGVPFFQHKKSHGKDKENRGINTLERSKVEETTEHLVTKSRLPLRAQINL
Description: Binding affinity to KSP motor domain (unknown origin) assessed as change in melting temperature at 100 uM by differential scanning fluorimetry in presence of 1 mM ATP

Compound | T/C (HCT-116 [1]) | TGI (HCT-116 [2]) | inhibition [3] | MI50 (HeLa [4]) | Activity (HeLa [5]) | Activity (Mus musculus) | ΔTm [6]
N[C@@H](CSC1(c2ccc(C(F)(F)F)cc2)c2ccccc2CCc2ccccc21)C(=O)O | 9% | Dose-dependent effect | inactive | 14 nM | Active | Non-toxic | 
COc1ccc(C2(SC[C@H](N)C(=O)O)c3ccccc3CCc3ccccc32)cc1 |  |  | inactive |  |  |  | 12 °C
